Results published in US20230340012A1, “NATURAL AND SYNTHETIC COMPOUNDS FOR TREATING CANCER AND OTHER DISEASES” (PACIFIC ARROW LIMITED, priority 2009, published 2023).
In brackets after ≈: the same amount, converted by molar mass.

Key:
H460 = assay: MTT assay, lung (H460); format: cell-based, human; details: for IC50 of lung (H460): MTT
Protocol: (§1) Cells. HTB-9 (bladder), HeLa-S3 (cervix), DU145 (prostate), H460 (lung), MCF-7 (breast), K562 (leukemia), HCT116 (colon), HepG2 (liver), U2OS (bone), T98G (brain), SK-MEL-5 (Skin) and OVCAR 3, ES2 (ovary), Pancreas (Capan), Mouth (KB), Kidney(A498).
(§2) MTT Assay. The procedure for MTT assay followed the method described by Carmichael et al. (1987) with modifications. The cells were seeded into a 96-well plate at for 24 hours before drug-treatment. The cells were then exposed to the drugs for 48, 72, or 96 hours. After the drug-treatment, MTT (0.5 mg/mL) was added to cultures and incubated for an hour. The formazan (product of the reduction of tetrazolium by viable cells) formed and was dissolved with DMSO and the O.D. at 490 nm, and was measured by an ELISA reader. The MTT level of the cells before drug-treatment was also measured (T0). The % cell-growth (%G) is calculated as: %G = (TD-T0 / TC-T0) x 100(1), where TC or TD represents O.D. readings of control or drug-treated cells. When T0 > TD, then the cytotoxicity (LC) expressed as % of the control is calculated as: %LC = (TD-T0 / T0) × 100(2).
Methods: • A. Cells • -- H460 cells are derived from a Human Lung large cell carcinoma. Cells were grown in RPMI 1640 medium supplemented with 10% FCS, antibiotics and glutamine. 5000 cells were seeded in a well (96-welled plate) for one day before drug-treatment • B. Drug treatment: • -- Drug: Tig-S (stored as a 1000x stock solution in DMSO) was used. • -- Drug concentration used: from 0.15 - 20 ug/ml. • -- Drug-treatment was carried out for 1, 2 and 4 days. For the 4 days incubation, cells were fed with fresh medium (with drug) on day 2. • C. At the end of the drug-treatment, cytotoxic test was performed with MTT assay. Results: • 1. Tig-S inhibits H460 cells’ growth with the IC50 of drug 3 ug/ml. • 2. […] cells growth inhibition was observed beyond drug 5 ug/ml. • 3. No dead cell was found at drug concentration in 20 ug/ml.

HTB-9 = assay: MTT assay, bladder (HTB-9); format: cell-based, human
Protocol: as §1, §2

HCT116 = assay: MTT assay, colon (HCT116); format: cell-based, human
Protocol: as §1, §2

Capan = assay: MTT assay, pancreas (Capan); format: cell-based, human
Protocol: as §1, §2
• A. Cells: Capan cells are derived from Human pancreas carcinoma (pancreas). Cells were grown in RPMI 1640 medium supplemented with 10% FCS, antibiotics and glutamine. 10000 cells were seeded in a well (96-welled plate) for one day before drug-treatment • B. Drug treatment: • -- Drug: Tig-S (stored as a 1000x stock solution in DMSO) was used. • -- Drug concentration used: from 0.15 - 20 ug/ml. • -- Drug-treatment was carried out for 3 days. • C. At the end of the drug-treatment, cytotoxic test was performed with MTT assay. The percentage of drug-treated cells’ growth as compared to those of the no drug control is determined.

OVCAR3 = assay: MTT assay, ovary (OVCAR3); format: cell-based, human; details: for IC50 of ovary (OVCAR3): MTT
Protocol: as §1, §2

SK-Mel-5 = assay: MTT assay, skin (SK-Mel-5); format: cell-based, human
Protocol: as §1, §2

KB = assay: MTT assay, mouth (KB); format: cell-based, human
Protocol: as §1, §2

HepG2 = assay: MTT assay, liver (HepG2); format: cell-based, human
Protocol: as §1, §2

T98G = assay: MTT assay, brain (T98G); format: cell-based, human
Protocol: as §1, §2

K562 = assay: MTT assay, leukemia (K562); format: cell-based, human
Protocol: as §1, §2

ES2 cells = assay: Inhibition of cell adhesion, ES2; format: cell-based, human; details: for ES2 cells attached to flasks compared to no drug controls / unattached cells alive: 5 ug/ml; for ES2 cells attached to flasks compared to no drug controls: 5 hours; for unattached cells alive: trypan Blue exclusion; for unattached cells alive / cells attached to flasks: ES2 or Hey8A; for cells attached to flasks: 10 ug/ml
Protocol: (§3) Methods and Results. ES2 or Hey8A cells were plated in T25 flasks with medium containing 5 ug/ml of compounds selected from structure (2A) including E4A-Tig-R, E4A-Tig-V, E4A-Tig-S, E4A-Tig-N, E4A-Tig-Q, E4A-Tig-T. Cultures were incubated for 5 hours. Attached cells were removed from flasks by trypsinization and the numbers/amounts were counted. Compared to no drug controls, 80 ± 4% of ES2 cells and 60 ± 4% of Hey8A cells were found attached to flasks under this condition. At 5 ug/ml of above compounds, over 90% of unattached cells are alive as determined by the trypan Blue exclusion assay and by their ability to re-attach to flasks when plating in medium without tested compounds. However, with 10 ug/ml tested compounds, less than 40% of cells attached to flasks and many of them are dead cells.

Hey8A cells = assay: Inhibition of cell adhesion, Hey8A; format: cell-based; details: 5 ug/ml, 5 hours
Protocol: as §3

Fibronectin = Fibronectin secretion experiment (Western blot); format: cell-based; details: bladder, cervix, prostate, lung, breast, leukemia, colon, liver, bone, brain, skin, ovary, pancreas, mouth, kidney cells; 24 hours
Protocol: Western blot is applied in this invention as a method to detect the specific proteins in treated and untreated cells with compounds in this invention, wherein the cells are bladder, cervix, prostate, lung, breast, leukemia, colon, liver, bone, brain, Skin, ovary, Pancreas(Capan), Mouth(KB), Kidney.
Cells: targeted cells were grown in RPMI 1640 medium. 1.5 million cells were seeded in a T25 flask and grown for 24 hours before drug-treatment.
Drug-treatment: Cells cultures were replaced with fresh RPMI medium containing either 2.5 ul of DMSO (as control) [D]; or 10, 20, 30, 40, 80 ug/ml of tested compounds.
After 24 hours, aliquot of culture medium was taken out for Fibronectin determination (Western blot method).
Cell viability at 24 hours was determined by MTT assay. Cultures were replaced with RPMI medium (5 ml) with MTT and incubated for an hour. The formation of formazan was dissolved in 10 ml of DMSO and OD at 570 nm was measured (MTT units). Western Blot: Spent culture medium was mixed with SDS sample buffer, boiled for 3 minutes before loading to SDS gel. Samples were applied to a 6-10% SDS gel and electrophoresis was conducted with 100 volts for 2 hours. Protein was transferred to a nitrocellulose membrane electrophoretically. The nitrocellulose blot was incubated with the first antibody and second antibody (AP conjugated, Promega S3721). The immuno-bands were developed with BCIP/NBT color development system.
Determination of Western blot band intensity: The band-images of Western blot were captured with a digital camera and the intensity of bands was determined using “Image J” software.

IC50 of lung (H460) (H460) [µg/mL] | IC50 of colon (HCT116) (HCT116) [µg/mL] | IC50 of ovary (OVCAR3) (OVCAR3) [µg/mL] | IC50 of skin (SK-Mel-5) (SK-Mel-5) [µg/mL] | IC50 of mouth (KB) (KB) [µg/mL] | IC50 of liver (HepG2) (HepG2) [µg/mL] | IC50 of leukemia (K562) (K562) [µg/mL] | Molecule | IC50 of bladder (HTB-9) (HTB-9) [µg/mL] | IC50 of pancreas (Capan) (Capan) [µg/mL] | IC50 of brain (T98G) (T98G) [µg/mL] | ES2 cells attached to flasks compared to no drug controls (ES2 cells) [%] | unattached cells alive (ES2 cells) | cells attached to flasks (ES2 cells) | Hey8A cells attached to flasks compared to no drug controls (Hey8A cells) [%] | inhibition of fibronectin secretion (Fibronectin) | also measured
4.8 | 5.2 | 5.8 | 5.1 | 3 | 6 | 2 | 24,28-O-Tigloyl-3β,16α, 21β, 22a, 24β, 28-hexahydroxyolean-12-ene [Tig-R] | 2.5 | 2.4 | 8 | 80 ± 4 | over 90% | less than 40% | 60 ± 4 | 20-40% | 
13 | 15 | 18 | 15 | 9 | 18 | 6 | CC=C(C)C(=O)OCC1(C)C(O)CCC2(C)C1CCC1(C)C2CC=C2C3CC(C)(C)C(O)C(O)C3(CO)C(O)CC21C (stereo not shown) [Tig-N] | 7.5 | 8 | 19 | 80 ± 4 | over 90% | less than 40% | 60 ± 4 | 20-40% | 
21 | 23 | 25 | 22 | 13 | 26 | 9 | CC=C(C)C(=O)OCC1(C)C(O)CCC2(C)C1CCC1(C)C2CC=C2C3CC(C)(C)C(O)C(OC(=O)C(C)=CC)C3(COC(=O)C(C)=CC)C(O)CC21C (stereo not shown) [Tig-T] |  | 10 | 26 | 80 ± 4 | over 90% | less than 40% | 60 ± 4 | 20-40% | 

Molecule | IC50 of lung (H460) (H460) [µg/mL] | IC50 of colon (HCT116) (HCT116) [µg/mL] | IC50 of ovary (OVCAR3) (OVCAR3) [µg/mL] | IC50 of skin (SK-Mel-5) (SK-Mel-5) [µg/mL] | IC50 of mouth (KB) (KB) [µg/mL] | IC50 of liver (HepG2) (HepG2) [µg/mL] | IC50 of leukemia (K562) (K562) [µg/mL] | IC50 of bladder (HTB-9) (HTB-9) [µg/mL] | IC50 of pancreas (Capan) (Capan) [µg/mL] | IC50 of brain (T98G) (T98G) [µg/mL] | ES2 cells attached to flasks compared to no drug controls (ES2 cells) [%] | unattached cells alive (ES2 cells) | cells attached to flasks (ES2 cells) | Hey8A cells attached to flasks compared to no drug controls (Hey8A cells) [%] | inhibition of fibronectin secretion (Fibronectin) | also measured
CC=C(C)C(=O)OCC1(C)C(O)CCC2(C)C1CCC1(C)C2CC=C2C3CC(C)(C)C(OC(=O)C(C)=CC)C(O)C3(CO)C(O)CC21C (stereo not shown) [Tig-S] | 5.6 | 6.6 | 6.5 | 5.8 |  | 8.5 | 4.3 | 3.5 | 2.9 | 9 | 80 ± 4 | over 90% | less than 40% | 60 ± 4 | 20-40% | IC50, lung H460 cells growth (H460; 4 days): 3 µg/mL (≈ 4.47 µM); IC50, H460 cells' growth (H460; Experiment 32, treatment 1, 2 and 4 days): 3 µg/mL (≈ 4.47 µM); dead cells, H460 (H460; at 20 ug/ml): No dead cell; IC50, lung H460 cells growth (H460; one day): 3.4 µg/mL (≈ 5.07 µM); IC50, pancreas cancer (Capan) cells' growth (Capan; 3 days): about 1 ug/ml; IC50, ovarian cancer (OCAR3) cells' growth (OVCAR3; FIG. 37): 2.5 µg/mL (≈ 3.73 µM)
